Experimental data taken from patent EP0223671A1, “Medicament with a synergistic anti-inflammatory effect on the basis of a corticosteroid and a beta-agonist” (CENTRE INTERNATIONAL DE RECHERCHES DERMATOLOGIQUES GALDERMA …, priority 1985, dated 1987).
Counter-ions that a name gives are not always drawn. Marks after values point to notes of the source that are not given here.

Tests used:
[1] = test system: oedème de l'oreille induit par l'huile de croton; assay: Croton oil-induced ear oedema test in the rat; assay type: in vivo; conditions: inhibition of oedema vs control animals, topical on right ear 1 h before croton oil, read 6 h after, hydro-ethanolic gel vehicle
Method: On applique de façon normalisée sur les faces interne et externe de l'oreille droite de rats une solution d'huile de croton ayant la composition suivante: • - pyridine : 4ml • - oxyde de diéthyle: 13ml • - huile de croton^*: 2ml • - eau qsp 20ml ^* SIGMA réf. C4755
Les animaux traités reçoivent, une heure avant l'application de l'huile de croton, une application sur l'oreille droite par voie topique, du produit étudié dans le véhicule suivant (placebo):gel hydroéthanolique à 2X d'hydroxypropyl cellulose (KLUCEL HF); (proportion eau-éthanol : 80/20).
Les animaux témoins ne reçoivent que l'application d'huile de croton.
Six heures après l'application d'huile de croton, on évalue l'importance de l'oedème par comparaison de l'oreille droite et de l'oreille gauche. On calcule ensuite l'inhibition de l'oedème, en pourcentage, par rapport aux animaux témoins.

érythème induit par UVB = assay: UVB-induced erythema test in the guinea pig; assay type: in vivo, cobaye; conditions: dose 5 % p/v, 100 microlitres per site, topical 1 h after irradiation; vs animals given vehicle alone
Method: Les flancs des cobayes sont rasés à la tondeuse 24 heures avant l'expérience. On soumet les animaux à une irradiation à l'aide d'une lampe à vapeur de mercure. On irradie pendant 30 secondes deux sites de diamètre 1,5cm sur chaque flanc. Une heure après l'irradiation, on applique par voie topique le produit étudié sur chaque site irradié d'un seul flanc. Les observations de l'érythème sont faites 2h, 3,5h, 5h et 24h après l'application du produit. L'érythème est évalué selon une échelle de 0 à 5.
Les produits sont appliqués dans le véhicule suivant: • N,N-diméthylacétamide: 20ml • acétone : 40ml • éthanol : 40ml
On applique un volume de 100 microlitres par site.
On évalue l'importance de l'érythème en comparant les flancs droit et gauche. On calcule ensuite l'inhibition de l'érythème, en pourcentage, par rapport aux animaux témoins ayant reçu une application du véhicule seul.

SMILES	POURCENTAGE D'INHIBITION ([1]; dose 0.1 % p/v)	POURCENTAGE D'INHIBITION DE L'ERYTHEME 5 HEURES APRES APPLICATION (érythème induit par UVB)	POURCENTAGE D'INHIBITION ([1]; dose 0.5 % p/v)	other results
CCCC(=O)O[C@]1(C(=O)CO)CC[C@H]2[C@@H]3CCC4=CC(=O)CC[C@]4(C)[C@H]3[C@@H](O)C[C@@]21C [HYDROCORTISONE 17 BUTYRATE, Hydrocortisone-17 butyrate]	30%			
C[C@]12CCC(=O)C=C1CC[C@@H]1[C@@H]2[C@@H](O)C[C@@]2(C)[C@H]1CC[C@]2(O)C(=O)CO [HYDROCORTISONE, Hydrocortisone]	14%	3 NS %		
CC(C)NCC(O)COc1cccc2ccccc12 (stereo not shown) [PROPRANOLOL]				P[…]'INHIBITION ([1]; dose 0.5 % p/v): 5%
CC(C)(C)NCC(O)c1ccc(O)c(CO)c1 (stereo not shown) [SALBUTAMOL SULFATE, 2-(tert-butylamino)-1-(4-hydroxy-3-hydroxyphényl)éthanol]			14%	
CC(C)(C)NCC(O)c1ccc(O)c(CO)c1 (stereo not shown) [SALBUTAMOL, 2-(tert-butylamino)-1-(4-hydroxy-3-hydroxyphényl)éthanol]		14 * %		
CC(C)(C)NCC(O)c1cc(O)cc(O)c1 (stereo not shown) [TERBUTALINE SULFATE, 1-(3,5-dihydroxyphényl)-2-(tert-butylamino)éthanol]			12%	
